6 compounds from PubChem BioAssay (NCI) can be followed below.

Experiment in all cases: NCI tumour cell line growth inhibition, 48 h
Test [1] concerns MDA-MB-435.
For test [2], the system named is NCI/ADR-RES ovarian.
The test system of test [3] is SNB-19 CNS.
Test [4] concerns SF-268 CNS.
Test [5] deals with OVCAR-4 ovarian.
The test system of test [6] is LOX IMVI melanoma.
Test [7] relates to MOLT-4 leukemia.
In test [8] the test system is SK-MEL-5 melanoma.
Test [9] relates to DU-145 prostate.
In test [10] the test system is EKVX NSCLC.

Structures are written as SMILES. Values joined by “and” are separate entries in the source; they are usually repeats but may differ in a detail not shown here. Equal values may be shown once.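 Values below derive from 48-hour exposures of cells grown in 96-well plates, with endpoints linearly interpolated between the two concentrations bracketing the appropriate inhibition level. At the GI50, growth is halved. Definition used: TGI = concentration required for complete inhibition of growth.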 Some results are limits rather than exact numbers.

Consider `C=C1C[C@@H](O)[C@@H](Br)C(C)(C)[C@]12CCC(C)(Br)C(Cl)C2` (some centres undefined), for which the GI50 in [1] is 18 µM; in [2], 22.5 µM; in test [3], 17.6 µM; in [4] it was 19.1 µM; in test [5], 15.7 µM; in [6] it was 18.1 µM. For the same compound, the GI50 is 14.2 µM in test [7], 16.7 µM in test [8], 18.7 µM in test [9] and 2.54 µM in [10]. Moreover, the TGI was > 50 µM and 35.8 µM in test [1]; > 50 µM and 56 µM in test [2]; > 50 µM and 33.2 µM in [3]; > 50 µM and 35.8 µM in test [4]; > 50 µM and 32.9 µM in test [5]; > 50 µM and 35 µM in [6]. In addition, the TGI in test [7] was > 50 µM and 34.5 µM; in [8], > 50 µM and 30.3 µM; in [9] it was > 50 µM and 36 µM; in test [10], 50 µM and 15.2 µM.
In the case of `Nc1nc(=S)c2ncn(C3OC(CO)C(O)C3O)c2[nH]1` (centres undefined), the GI50 in [1] is 1.02 µM; in test [2], 0.4 µM; in test [3], 33.1 µM; in test [4] it was 0.755 µM; in [5], 1.86 µM; in test [6], 0.301 µM. Further, the GI50 in test [7] is 0.433 µM; in test [8], 2.41 µM; in [9], 0.542 µM; in test [10], 2.02 µM. Moreover, the TGI in test [1] is above 69.6 µM; in test [3], above 100 µM; in test [4] it was above 100 µM; in [5], above 100 µM; in test [6], 11.8 µM; in test [7], 10.3 µM. For the same compound, the figures for the TGI in test [8], in test [9] and in test [10] were 10.8 µM, above 100 µM and above 100 µM, respectively.
With `CCCCCCCCCCCCNC(=O)N[C@H](C(=O)N[C@H]1/C=C/CCNC(=O)/C=C/[C@H](C)NC1=O)C(C)C`, the GI50 was 0.0316 µM in test [1]; above 100 µM in [2]; 0.0647 µM in [3]; 0.0543 µM in test [4]; 0.104 µM in test [5]; 0.113 µM in [6]. Besides, the GI50 in test [7] was 0.0448 µM; in test [8] it was 0.163 µM; in test [9], 0.108 µM; in test [10], 0.477 µM. Moreover, the TGI was 0.286 µM in test [1]; above 100 µM in [2]; 15 µM in test [3]; 1.04 µM in test [4]; 2.12 µM in test [5]; 0.355 µM in test [6]. The TGI in test [7] is 1.13 µM; in [8], 0.39 µM; in test [9], 3.78 µM; in [10] it was 12.6 µM.
Regarding `CCC1(OC(=O)CNC)C(=O)OCc2c1cc1n(c2=O)Cc2cc3ccccc3nc2-1` (centres undefined), the TGI in test [1] stood at 0.279 µM; in test [2] it was 0.0151 µM; in test [3], 6.12 µM; in [4] it was 0.709 µM; in test [5] it was 0.493 µM; in [6], 0.137 µM. The TGI in test [7] was 0.0631 µM; in [8], 0.0337 µM; in test [9], 0.0124 µM; in test [10] it was 17 µM.
On to `Cc1cc2c(C(=O)NCC#N)cccc2n1-c1nc2c(c(NCc3ccccc3)n1)CCCC2`, for which the GI50 is 0.249 µM in test [1]; 0.328 µM in [2]; 0.499 µM in [3]; 0.34 µM in test [4]; 0.322 µM in test [5]; 0.18 µM in test [6]. In addition, the GI50 in [7] was 0.313 µM; in test [8], 0.118 µM; in [9] it was 0.384 µM; in test [10], 0.329 µM. Also, the TGI in test [1] worked out at 0.809 µM; in test [2], 3.03 µM; in test [3], 2.91 µM; in test [4] it was 1.35 µM; in [5], 1.76 µM; in [6] it was 0.358 µM. Besides, the TGI came to 65.6 µM in [7], 0.245 µM in test [8], 2.48 µM in test [9] and 2.4 µM in [10].
With `CC(=O)OC1CC2C(C)(C)CCC[C@]2(C)C2=C1C(O)=C(C(C)C)C(=O)C2=O` (some centres undefined), the GI50 in test [1] is 0.335 µM; in [2], 0.817 µM; in [3], 0.646 µM; in [4] it was 0.902 µM; in test [5] it was 0.8 µM; in test [6], 1.15 µM. For the same compound, the GI50 in test [7] is 1.4 µM; in [8], 0.174 µM; in test [9], 0.867 µM; in test [10] it was 0.3 µM. In addition, the TGI in test [1] is 1.72 µM; in [2], 5.13 µM; in test [3], above 46 µM; in test [4] it was 10.1 µM; in [5], 7.07 µM; in [6] it was 2.95 µM. The TGI was above 30.8 µM in [7], 0.343 µM in test [8], 2.28 µM in [9] and 1.53 µM in [10].
